ChEMBL document CHEMBL1201862, “PubChem BioAssay data set” (2004)
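A five-concentration, 48-hour dose response in 96-well plates underlies each endpoint, interpolated linearly between surrounding concentrations. Here, GI50 denotes the concentration required for 50% inhibition of growth.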 Calls of active or inactive are those of the source. Cut-off read from the data, not from the text of the source: active = GI50 up to about 1.1 µM and inactive = higher.

Experiments:
Assay in all cases: NCI tumour cell line growth inhibition, 48 h
[1] = tested on: 786-0
[2] = tested on: A549
[3] = tested on: ACHN
[4] = tested on: CAKI-1
[5] = tested on: CCRF-CEM
[6] = tested on: COLO 205
[7] = tested on: DLD-1
[8] = tested on: DMS-114
[9] = tested on: DMS-273
[10] = tested on: EKVX
[11] = tested on: HCC 2998
[12] = tested on: HCT-116
[13] = tested on: HCT-15
[14] = tested on: HOP-62
[15] = tested on: HT-29
[16] = tested on: IGROV-1
[17] = tested on: K562
[18] = tested on: KM-20L2
[19] = tested on: KM12
[20] = tested on: LOX IMVI
[21] = tested on: LXFL 529
[22] = tested on: M14
[23] = tested on: M19-MEL
[24] = tested on: MOLT-4
[25] = tested on: Malme-3M
[26] = tested on: NCI-H226
[27] = tested on: NCI-H23
[28] = tested on: NCI-H460
[29] = tested on: NCI-H522
[30] = tested on: OVCAR-3
[31] = tested on: OVCAR-4
[32] = tested on: OVCAR-5
[33] = tested on: OVCAR-8
[34] = tested on: RPMI-8226
[35] = tested on: RXF 631
[36] = tested on: SF-268
[37] = tested on: SF-295
[38] = tested on: SF-539
[39] = tested on: SK-MEL-28
[40] = tested on: SK-MEL-2
[41] = tested on: SK-MEL-5
[42] = tested on: SN12C
[43] = tested on: SNB-19
[44] = tested on: SNB-75
[45] = tested on: SNB-78
[46] = tested on: SR
[47] = tested on: SW-620
[48] = tested on: U-251
[49] = tested on: UACC-257
[50] = tested on: UACC-62
[51] = tested on: UO-31
[52] = tested on: A498
[53] = tested on: HL-60
[54] = tested on: HOP-18
[55] = tested on: HOP-92
[56] = tested on: RXF 393
[57] = tested on: SK-OV-3
[58] = tested on: TK-10

In the case of `COc1ccc(C(C2=C(O)CC(C)OC2=O)C2=C(O)CC(C)OC2=O)cc1` (configuration not stated), the GI50 [1] is reported as > 100 µM (inactive), the GI50 [2] is reported as > 100 µM (inactive) and the GI50 [3] is reported as > 100 µM (inactive). The GI50 [4] was > 100 µM (inactive), the GI50 [5] was > 100 µM (inactive) and the GI50 [6] was > 100 µM (inactive). The GI50 [7] was > 100 µM (inactive), the GI50 [8] was > 100 µM (inactive) and the GI50 [9] was > 100 µM (inactive). For the same compound, the GI50 [10] was > 100 µM (inactive), the GI50 [11] was > 100 µM (inactive) and the GI50 [12] was > 100 µM (inactive). The GI50 [13] was greater than 100 µM, the GI50 [14] was > 100 µM (inactive) and the GI50 [15] was > 100 µM (inactive). The GI50 [16] was > 100 µM (inactive), the GI50 [17] was > 100 µM (inactive) and the GI50 [18] was > 100 µM (inactive). The GI50 [19] was > 100 µM (inactive), the GI50 [20] was > 100 µM (inactive) and the GI50 [21] was > 100 µM (inactive). The GI50 [22] was > 100 µM (inactive), the GI50 [23] was > 100 µM (inactive) and the GI50 [24] was > 100 µM (inactive). For the same compound, the GI50 [25] was > 100 µM (inactive), the GI50 [26] was > 100 µM (inactive) and the GI50 [27] was > 100 µM (inactive). The GI50 [28] was > 100 µM (inactive), the GI50 [29] was > 100 µM (inactive) and the GI50 [30] was > 100 µM (inactive). The GI50 [31] was > 100 µM (inactive), the GI50 [32] was > 100 µM (inactive) and the GI50 [33] was > 100 µM (inactive). For the same compound, the GI50 [34] was > 100 µM (inactive), the GI50 [35] was > 100 µM (inactive) and the GI50 [36] was > 100 µM (inactive). For the same compound, the GI50 [37] was > 100 µM (inactive), the GI50 [38] was > 100 µM (inactive) and the GI50 [39] was > 100 µM (inactive). The GI50 [40] was > 100 µM (inactive), the GI50 [41] was > 100 µM (inactive) and the GI50 [42] was > 100 µM (inactive). For the same compound, the GI50 [43] was > 100 µM (inactive), the GI50 [44] was > 100 µM (inactive) and the GI50 [45] was > 100 µM (inactive). For the same compound, the GI50 [46] was > 100 µM (inactive), the GI50 [47] was > 100 µM (inactive) and the GI50 [48] was > 100 µM (inactive). The GI50 [49] was > 100 µM (inactive), the GI50 [50] was > 100 µM (inactive) and the GI50 [51] was > 100 µM (inactive).

With `O=C1Nc2ccccc2N=CC1NC(=O)C(c1ccccc1)c1ccccc1` (configuration not stated) the GI50 [1] was > 100 µM (inactive), the GI50 [52] was > 100 µM (inactive) and the GI50 [2] was > 100 µM (inactive). The GI50 [3] was > 100 µM (inactive), the GI50 [4] was > 100 µM (inactive) and the GI50 [5] was > 100 µM (inactive). For the same compound, the GI50 [6] was > 100 µM (inactive), the GI50 [7] was > 100 µM (inactive) and the GI50 [8] was 86.5 µM (inactive). The GI50 [9] was > 100 µM (inactive), the GI50 [10] was > 100 µM (inactive) and the GI50 [11] was > 100 µM (inactive). For the same compound, the GI50 [12] was > 100 µM (inactive), the GI50 [13] was greater than 100 µM and the GI50 [53] was > 100 µM (inactive). For the same compound, the GI50 [54] was > 100 µM (inactive), the GI50 [14] was > 100 µM (inactive) and the GI50 [55] was 32.5 µM (inactive). The GI50 [15] was > 100 µM (inactive), the GI50 [16] was > 100 µM (inactive) and the GI50 [17] was > 100 µM (inactive). The GI50 [18] was > 100 µM (inactive), the GI50 [19] was > 100 µM (inactive) and the GI50 [20] was > 100 µM (inactive). The GI50 [21] was > 100 µM (inactive), the GI50 [22] was > 100 µM (inactive) and the GI50 [23] was > 100 µM (inactive). The GI50 [24] was 79.3 µM (inactive), the GI50 [25] was > 100 µM (inactive) and the GI50 [26] was > 100 µM (inactive). The GI50 [27] was > 100 µM (inactive), the GI50 [28] was > 100 µM (inactive) and the GI50 [29] was > 100 µM (inactive). For the same compound, the GI50 [30] was > 100 µM (inactive), the GI50 [31] was > 100 µM (inactive) and the GI50 [32] was > 100 µM (inactive). The GI50 [33] was > 100 µM (inactive), the GI50 [34] was > 100 µM (inactive) and the GI50 [56] was > 100 µM (inactive). For the same compound, the GI50 [35] was > 100 µM (inactive), the GI50 [36] was > 100 µM (inactive) and the GI50 [37] was > 100 µM (inactive). The GI50 [38] was > 100 µM (inactive), the GI50 [39] was > 100 µM (inactive) and the GI50 [40] was > 100 µM (inactive). For the same compound, the GI50 [41] was > 100 µM (inactive), the GI50 [57] was > 100 µM (inactive) and the GI50 [42] was > 100 µM (inactive). The GI50 [43] was > 100 µM (inactive), the GI50 [44] was > 100 µM (inactive) and the GI50 [45] was > 100 µM (inactive). For the same compound, the GI50 [47] was > 100 µM (inactive), the GI50 [58] was > 100 µM (inactive) and the GI50 [48] was > 100 µM (inactive). The GI50 [49] was > 100 µM (inactive), the GI50 [50] was > 100 µM (inactive) and the GI50 [51] was > 100 µM (inactive).

With `CC(=O)OCC1OC(N2C(=O)C(=O)c3ccccc32)C(OC(C)=O)C(OC(C)=O)C1OC(C)=O` (configuration not stated) the GI50 [1] was > 100 µM (inactive), the GI50 [52] was > 100 µM (inactive) and the GI50 [2] was > 100 µM (inactive). The GI50 [3] was > 100 µM (inactive), the GI50 [4] was > 100 µM (inactive) and the GI50 [5] was > 100 µM (inactive). The GI50 [6] was > 100 µM (inactive), the GI50 [7] was > 100 µM (inactive) and the GI50 [8] was > 100 µM (inactive). The GI50 [9] was > 100 µM (inactive), the GI50 [10] was > 100 µM (inactive) and the GI50 [11] was > 100 µM (inactive). The GI50 [13] was greater than 100 µM, the GI50 [54] was > 10 µM (inactive) and the GI50 [14] was > 100 µM (inactive). For the same compound, the GI50 [55] was > 100 µM (inactive), the GI50 [15] was > 100 µM (inactive) and the GI50 [16] was > 100 µM (inactive). For the same compound, the GI50 [17] was > 100 µM (inactive), the GI50 [18] was > 100 µM (inactive) and the GI50 [19] was > 100 µM (inactive). For the same compound, the GI50 [20] was > 100 µM (inactive), the GI50 [21] was > 100 µM (inactive) and the GI50 [22] was > 100 µM (inactive). For the same compound, the GI50 [23] was 91.2 µM (inactive), the GI50 [24] was > 100 µM (inactive) and the GI50 [25] was > 100 µM (inactive). For the same compound, the GI50 [26] was > 100 µM (inactive), the GI50 [27] was > 100 µM (inactive) and the GI50 [28] was > 100 µM (inactive). For the same compound, the GI50 [29] was > 100 µM (inactive), the GI50 [30] was > 100 µM (inactive) and the GI50 [31] was > 100 µM (inactive). The GI50 [33] was > 100 µM (inactive), the GI50 [34] was > 100 µM (inactive) and the GI50 [56] was > 100 µM (inactive). The GI50 [35] was > 100 µM (inactive), the GI50 [36] was > 100 µM (inactive) and the GI50 [37] was > 100 µM (inactive). For the same compound, the GI50 [38] was > 100 µM (inactive), the GI50 [39] was > 100 µM (inactive) and the GI50 [40] was > 100 µM (inactive). The GI50 [41] was > 100 µM (inactive), the GI50 [57] was > 100 µM (inactive) and the GI50 [42] was > 100 µM (inactive). For the same compound, the GI50 [43] was > 100 µM (inactive), the GI50 [44] was > 100 µM (inactive) and the GI50 [46] was > 100 µM (inactive). The GI50 [47] was > 100 µM (inactive), the GI50 [58] was > 100 µM (inactive) and the GI50 [48] was > 100 µM (inactive). The GI50 [49] was > 100 µM (inactive), the GI50 [50] was > 100 µM (inactive) and the GI50 [51] was > 100 µM (inactive).
